The target in assay [1] is T1, Or22a (Drosophila melanogaster, UniProt P81909).
T1 construct: his-tag; made in house; host or cells: baculovirus-infected Sf9 cells
T1 sequence (P81909 1-397): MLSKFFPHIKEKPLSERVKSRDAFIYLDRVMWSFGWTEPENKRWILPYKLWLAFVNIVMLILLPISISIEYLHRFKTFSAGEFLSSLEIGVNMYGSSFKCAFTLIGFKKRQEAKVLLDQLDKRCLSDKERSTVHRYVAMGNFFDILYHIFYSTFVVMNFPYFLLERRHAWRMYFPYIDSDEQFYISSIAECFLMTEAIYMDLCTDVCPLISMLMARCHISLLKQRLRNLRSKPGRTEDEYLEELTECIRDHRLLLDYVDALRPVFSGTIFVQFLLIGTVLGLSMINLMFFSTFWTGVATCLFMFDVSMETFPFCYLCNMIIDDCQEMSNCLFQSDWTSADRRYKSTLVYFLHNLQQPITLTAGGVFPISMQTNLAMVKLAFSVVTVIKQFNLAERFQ
The assay is described as follows: GFET sensor, Or22a liposomes. In kind it is biochemical. The note with it: Table 4, GFET. An excerpt:
(§1) The GFETs used in this study were fabricated from a predeposited graphene film on 300 nm SiO2 coated Si substrate from ACS Suppliers, USA. The FETs consist of a channel with dimensions of 100 μm width and […]. The key steps involved in fabricating the GFET on a Si/SiO2 substrate is schematically illustrated in FIG. 12. The source and drain electrodes were defined by photolithography and formed by successive deposition of Cr and Au. Both the drain and source electrodes were then encapsulated using AZ1518 photoresist and a channel with dimensions of 100 μm width and 10 μm length was left open to the environment for gating and functionalisation.
(§2) The OR liposomes were functionalised onto the graphene surface via a non-covalent route using PBASE as the molecular linker as shown in FIG. 13. The OR liposomes were diluted at 1:10 ratio with 1×PBS (pH7.4). The cleaned GFETs were immersed in 1 mM PBASE solution in methanol for 1 hour. […]
(§3) Electrical sensor measurements of OR liposome functionalised GFETs were carried out using top liquid gate morphology as shown in the schematic in FIG. 15 (a). […] The transfer characteristics of the different graphene FETs (FIG. 15 (b) to (g)) were measured at Vds=1 mV while the liquid gate voltage Vlg was swept from −0.5 V to 1 V with an interval of 20 mV. […]

Assay [2] has as its target T2, Or10a/Orco (Drosophila melanogaster, UniProt Q9VYZ1).
T2 construct: his-tag; made in house; host or cells: baculovirus-infected Sf9 cells
T2 sequence (Q9VYZ1 1-406): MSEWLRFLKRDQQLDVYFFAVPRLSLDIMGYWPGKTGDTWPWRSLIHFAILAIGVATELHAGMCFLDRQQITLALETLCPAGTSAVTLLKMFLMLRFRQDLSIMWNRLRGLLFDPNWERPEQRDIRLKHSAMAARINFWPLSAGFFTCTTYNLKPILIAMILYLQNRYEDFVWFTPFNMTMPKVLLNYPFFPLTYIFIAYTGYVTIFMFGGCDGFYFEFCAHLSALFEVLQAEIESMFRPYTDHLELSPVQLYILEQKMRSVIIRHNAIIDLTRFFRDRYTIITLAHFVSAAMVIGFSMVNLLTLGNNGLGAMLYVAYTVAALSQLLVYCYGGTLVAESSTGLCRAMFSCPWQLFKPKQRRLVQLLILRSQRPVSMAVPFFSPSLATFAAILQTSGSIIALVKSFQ
T2 sequence (Q9VNB5 1-486 partner): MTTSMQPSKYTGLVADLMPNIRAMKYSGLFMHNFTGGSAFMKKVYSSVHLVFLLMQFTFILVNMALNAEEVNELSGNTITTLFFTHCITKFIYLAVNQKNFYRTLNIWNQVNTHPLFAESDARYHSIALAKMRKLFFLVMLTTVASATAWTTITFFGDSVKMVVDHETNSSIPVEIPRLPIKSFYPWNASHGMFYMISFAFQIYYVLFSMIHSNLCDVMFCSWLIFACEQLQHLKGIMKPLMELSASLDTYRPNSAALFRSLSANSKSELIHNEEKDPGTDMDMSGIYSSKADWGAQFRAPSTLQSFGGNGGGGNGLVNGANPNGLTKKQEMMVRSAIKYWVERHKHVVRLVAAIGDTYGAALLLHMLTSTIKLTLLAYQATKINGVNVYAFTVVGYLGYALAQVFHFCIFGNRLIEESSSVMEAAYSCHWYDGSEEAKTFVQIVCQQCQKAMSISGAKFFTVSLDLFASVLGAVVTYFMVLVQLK
The assay is described as follows: GFET sensor, Or10a/Orco liposomes. In kind it is biochemical. The note with it: Table 4, GFET.
Text: as §1, §2, §3

A word on the EC50: it is the midpoint of the concentration-response curve. Low readings indicate higher potency in that assay, high ones lower potency in that assay. Regarding `CCCCCC(=O)OC` [methyl hexanoate], in assay [1], the “Detection Range” value is on record as 10^−12 to 10^−8 M and it took 0.0121 nM to reach a half-maximal effect (EC50).

With `COC(=O)c1ccccc1O` [methyl salicylate], in assay [2], the “Detection Range” value was 10^−13-10^−8 M and the EC50 came to 2.07 pM.
